According to ChEMBL document CHEMBL3639084, “Heterocyclic analogs of propargyl-linked inhibitors of dihydrofolate reductase” (2014):

Target: T1, Dihydrofolate reductase (Homo sapiens, UniProt P00374)
T1 sequence (P00374 whole entry): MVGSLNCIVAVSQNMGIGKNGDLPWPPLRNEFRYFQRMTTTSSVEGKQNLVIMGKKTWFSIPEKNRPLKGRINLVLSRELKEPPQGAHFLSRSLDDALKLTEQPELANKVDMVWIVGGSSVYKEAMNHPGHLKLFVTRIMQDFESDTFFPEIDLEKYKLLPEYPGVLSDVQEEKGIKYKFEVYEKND
Test: Spectrophotometric Enzyme Assay: Compounds were evaluated in spectrophotometric enzyme assays using ChDHFR-TS and hDHFR. Inhibition constants (IC50) were measured (see Table 4). The lead compound, X, has an inhibition constant of 38 nM and modest selectivity (8-fold).

COc1cc(-c2ccccc2C)ccc1C(C)C#Cc1c(C)nc(N)nc1N (stereo unspecified)
IC50: 2770 nM
